Several values for one entry are separate records, joined by “and”; a condition that tells them apart may be missing. Equal entries are not always repeated.
What follows are molecules tested on MDA-MB-453 (assay: normalised viability (% of control), CellTiter-Blue; higher = more viable cells (about 100 = DMSO control)). Details: incubation time: 72 h.
Method: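 DSRT, CellTiter-Blue viability, 72 h incubation. Signal is normalised to DMSO and benzethonium chloride controls. Value is the normalised response at dose 6.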
O=P1(N(CCCl)CCCl)NCCCO1 (stereo unspecified) [Cyclophosphamide] (1200 nM) gave a normalised viability of 112%. C=C1C[C@@H]2[C@H](CC[C@]3(C)C(=O)CC[C@@H]23)[C@@]2(C)C=CC(=O)C=C12 [Exemestane] (300 nM) gave a normalised viability of 90.8%. COc1cc2ncnc(Nc3ccc(F)c(Cl)c3)c2cc1OCCCN1CCOCC1 [Gefitinib] (300 nM) was tested, and the normalised viability was 98.2% and 83.2%. With O=C(Nc1ccncc1)C(=O)c1cn(Cc2ccc(Cl)cc2)c2ccccc12 [Indibulin] (300 nM) the normalised viability was 41.4%. In the case of NC(=O)c1ccc(I)c([N+](=O)[O-])c1 [Iniparib] (300 nM), the normalised viability is reported as 95.2%. With CCc1c2c(nc3ccc(OC(=O)N4CCC(N5CCCCC5)CC4)cc13)-c1cc3c(c(=O)n1C2)COC(=O)[C@]3(O)CC [Irinotecan] (300 nM) the normalised viability was 97.6% and 103%. Oc1ccc2c(c1)CC[C@H](c1ccccc1)[C@@H]2c1ccc(OCCN2CCCC2)cc1 [Lasofoxifene] (30 nM) showed a normalised viability of 116%. Cc1ccc(NC(=O)c2ccc(CN3CCN(C)CC3)cc2)cc1Nc1nc(-c2cccnc2)cs1 [Masitinib] (300 nM) gave a normalised viability of 88.5%.

Each molecule was assayed on BT-474 (assay: normalised response (% of control), CellTox Green; higher = less cell death (100 = DMSO, 0 = benzethonium chloride kill control)). Details: incubation time: 72 h.
In short: (§1)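 After 72 h with compound in 384-well plates, breast cancer cell lines seeded as 20 µl suspension were read for CellTox Green fluorescence at 485/520 nm. CellTiter-Glo luminescence was then read after 10 min at room temperature. Compound was present at 5 concentrations in 10-fold steps over a 10,000-fold range set per compound, and plates were normalised to 0.1 % DMSO (100) and a positive kill control (0). Values are normalised signals, each at a single concentration.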
With COC(=O)c1ccc2c(c1)NC(=O)/C2=C(\Nc1ccc(N(C)C(=O)CN2CCN(C)CC2)cc1)c1ccccc1 [Nintedanib] (10000 nM) the normalised response was -15.7%. For COc1cc2c(NC3CCN(C(C)C)CC3)nc(N3CCC(F)(F)CC3)nc2cc1OCCCN1CCCC1 [UNC0642] (10000 nM), the normalised response was -7.97%.

These molecules were tested on BT-549 in the same assay as above. Details: incubation time: 72 h.
In short: as §1
In the case of COC(=O)c1ccc2c(c1)NC(=O)/C2=C(\Nc1ccc(N(C)C(=O)CN2CCN(C)CC2)cc1)c1ccccc1 [Nintedanib] (10000 nM), the normalised response is reported as 27.7%. In the case of COc1cc2c(NC3CCN(C(C)C)CC3)nc(N3CCC(F)(F)CC3)nc2cc1OCCCN1CCCC1 [UNC0642] (10000 nM), the normalised response is reported as 104%.

The molecules below were run on CAL-120 in the same assay as above. Details: incubation time: 72 h.
In short: as §1
For COC(=O)c1ccc2c(c1)NC(=O)/C2=C(\Nc1ccc(N(C)C(=O)CN2CCN(C)CC2)cc1)c1ccccc1 [Nintedanib] (10000 nM), the normalised response was 77.8%. With COc1cc2c(NC3CCN(C(C)C)CC3)nc(N3CCC(F)(F)CC3)nc2cc1OCCCN1CCCC1 [UNC0642] (10000 nM) the normalised response was 19.6%.

Each molecule was assayed on CAL-148 in the same assay as above. Details: incubation time: 72 h.
In short: as §1
COC(=O)c1ccc2c(c1)NC(=O)/C2=C(\Nc1ccc(N(C)C(=O)CN2CCN(C)CC2)cc1)c1ccccc1 [Nintedanib] (10000 nM) showed a normalised response of 79.6%. COc1cc2c(NC3CCN(C(C)C)CC3)nc(N3CCC(F)(F)CC3)nc2cc1OCCCN1CCCC1 [UNC0642] (10000 nM) was tested, and the normalised response was 44.5%.

The molecules below were run on CAL-51 in the same assay as above. Details: incubation time: 72 h.
In short: as §1
COC(=O)c1ccc2c(c1)NC(=O)/C2=C(\Nc1ccc(N(C)C(=O)CN2CCN(C)CC2)cc1)c1ccccc1 [Nintedanib] (10000 nM) showed a normalised response of -13%. COc1cc2c(NC3CCN(C(C)C)CC3)nc(N3CCC(F)(F)CC3)nc2cc1OCCCN1CCCC1 [UNC0642] (10000 nM) gave a normalised response of 113%.

Each molecule was assayed on CAL-85-1 in the same assay as above. Details: incubation time: 72 h.
In short: as §1
In the case of COC(=O)c1ccc2c(c1)NC(=O)/C2=C(\Nc1ccc(N(C)C(=O)CN2CCN(C)CC2)cc1)c1ccccc1 [Nintedanib] (10000 nM), the normalised response is reported as 85.3%. With COc1cc2c(NC3CCN(C(C)C)CC3)nc(N3CCC(F)(F)CC3)nc2cc1OCCCN1CCCC1 [UNC0642] (10000 nM) the normalised response was -18.1%.

These molecules were tested on DU-4475 in the same assay as above. Details: incubation time: 72 h.
In short: as §1
In the case of COC(=O)c1ccc2c(c1)NC(=O)/C2=C(\Nc1ccc(N(C)C(=O)CN2CCN(C)CC2)cc1)c1ccccc1 [Nintedanib] (10000 nM), the normalised response is reported as 96.7%. COc1cc2c(NC3CCN(C(C)C)CC3)nc(N3CCC(F)(F)CC3)nc2cc1OCCCN1CCCC1 [UNC0642] (10000 nM) was tested, and the normalised response was 95.5%.

These molecules were tested on HCC1143 in the same assay as above. Details: incubation time: 72 h.
In short: as §1
COC(=O)c1ccc2c(c1)NC(=O)/C2=C(\Nc1ccc(N(C)C(=O)CN2CCN(C)CC2)cc1)c1ccccc1 [Nintedanib] (10000 nM) showed a normalised response of 87.2%. Work on COc1cc2c(NC3CCN(C(C)C)CC3)nc(N3CCC(F)(F)CC3)nc2cc1OCCCN1CCCC1 [UNC0642] (10000 nM) yielded a normalised response of 76.4%.

These molecules were tested on HCC1599 in the same assay as above. Details: incubation time: 72 h.
In short: as §1
Molecule COC(=O)c1ccc2c(c1)NC(=O)/C2=C(\Nc1ccc(N(C)C(=O)CN2CCN(C)CC2)cc1)c1ccccc1 [Nintedanib] (10000 nM) has a normalised response of 99.9%. COc1cc2c(NC3CCN(C(C)C)CC3)nc(N3CCC(F)(F)CC3)nc2cc1OCCCN1CCCC1 [UNC0642] (10000 nM) gave a normalised response of 87.4%.

These molecules were tested on HCC1937 in the same assay as above. Details: incubation time: 72 h.
In short: as §1
With COC(=O)c1ccc2c(c1)NC(=O)/C2=C(\Nc1ccc(N(C)C(=O)CN2CCN(C)CC2)cc1)c1ccccc1 [Nintedanib] (10000 nM) the normalised response was 14.2%. With COc1cc2c(NC3CCN(C(C)C)CC3)nc(N3CCC(F)(F)CC3)nc2cc1OCCCN1CCCC1 [UNC0642] (10000 nM) the normalised response was 29.2%.

Each molecule was assayed on HDQ-P1 in the same assay as above. Details: incubation time: 72 h.
In short: as §1
For COC(=O)c1ccc2c(c1)NC(=O)/C2=C(\Nc1ccc(N(C)C(=O)CN2CCN(C)CC2)cc1)c1ccccc1 [Nintedanib] (10000 nM), the normalised response was 61.2%. In the case of COc1cc2c(NC3CCN(C(C)C)CC3)nc(N3CCC(F)(F)CC3)nc2cc1OCCCN1CCCC1 [UNC0642] (10000 nM), the normalised response is reported as 93.1%.

The molecules below were run on Hs578T in the same assay as above. Details: incubation time: 72 h.
In short: as §1
COC(=O)c1ccc2c(c1)NC(=O)/C2=C(\Nc1ccc(N(C)C(=O)CN2CCN(C)CC2)cc1)c1ccccc1 [Nintedanib] (10000 nM) showed a normalised response of 104%. Work on COc1cc2c(NC3CCN(C(C)C)CC3)nc(N3CCC(F)(F)CC3)nc2cc1OCCCN1CCCC1 [UNC0642] (10000 nM) yielded a normalised response of 122%.

These molecules were tested on MCF-10A in the same assay as above. Details: incubation time: 72 h.
In short: as §1
With COC(=O)c1ccc2c(c1)NC(=O)/C2=C(\Nc1ccc(N(C)C(=O)CN2CCN(C)CC2)cc1)c1ccccc1 [Nintedanib] (10000 nM) the normalised response was 31.4%. For COc1cc2c(NC3CCN(C(C)C)CC3)nc(N3CCC(F)(F)CC3)nc2cc1OCCCN1CCCC1 [UNC0642] (10000 nM), the normalised response was 57%.

The molecules below were run on MDA-MB-231 in the same assay as above. Details: incubation time: 72 h.
In short: as §1
COC(=O)c1ccc2c(c1)NC(=O)/C2=C(\Nc1ccc(N(C)C(=O)CN2CCN(C)CC2)cc1)c1ccccc1 [Nintedanib] (10000 nM) showed a normalised response of -69.5%. For COc1cc2c(NC3CCN(C(C)C)CC3)nc(N3CCC(F)(F)CC3)nc2cc1OCCCN1CCCC1 [UNC0642] (10000 nM), the normalised response was -38.7%.

The molecules below were run on MDA-MB-436 in the same assay as above. Details: incubation time: 72 h.
In short: as §1
Work on COC(=O)c1ccc2c(c1)NC(=O)/C2=C(\Nc1ccc(N(C)C(=O)CN2CCN(C)CC2)cc1)c1ccccc1 [Nintedanib] (10000 nM) yielded a normalised response of 42.1%. Work on COc1cc2c(NC3CCN(C(C)C)CC3)nc(N3CCC(F)(F)CC3)nc2cc1OCCCN1CCCC1 [UNC0642] (10000 nM) yielded a normalised response of 44%.

Each molecule was assayed on MDA-MB-453 in the same assay as above. Details: incubation time: 72 h.
In short: as §1
In the case of COC(=O)c1ccc2c(c1)NC(=O)/C2=C(\Nc1ccc(N(C)C(=O)CN2CCN(C)CC2)cc1)c1ccccc1 [Nintedanib] (10000 nM), the normalised response is reported as 99.7%. With COc1cc2c(NC3CCN(C(C)C)CC3)nc(N3CCC(F)(F)CC3)nc2cc1OCCCN1CCCC1 [UNC0642] (10000 nM) the normalised response was 43.1%.

Each molecule was assayed on MDA-MB-468 in the same assay as above. Details: incubation time: 72 h.
In short: as §1
COC(=O)c1ccc2c(c1)NC(=O)/C2=C(\Nc1ccc(N(C)C(=O)CN2CCN(C)CC2)cc1)c1ccccc1 [Nintedanib] (10000 nM) gave a normalised response of 15.6%.

Source: the supplement of paper PMC4862054
